Assay results: patent publication US11998539B2, “Substituted aminoquinolones as DGKalpha inhibitors for immune activation” (Bayer Aktiengesellschaft, priority 2019, dated 2024)

biological target: T1, DGKα (Homo sapiens (Human), UniProt P23743); experiment: Human DGKα kinase activity inhibition assay (ADP-Glo); format: biochemical; conditions: recombinant full-length human DGKα, 55 μM ATP, 7 μM 1,2-dioleoyl-sn-glycerol, read-out: IC50 values of examples in in vitro human DGKa kinase activity inhibition assays
Procedure, shortened: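 Recombinant full-length human DGKα (C-terminal FLAG, from insect cells) phosphorylated 1,2-dioleoyl-sn-glycerol presented in octyl-glucopyranoside micelles. ADP formed was quantified by ADP-Glo luminescence. Compounds were added from 100-fold DMSO stocks.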
Target sequence in this assay (P23743 other isoform, or with tags, fused parts or gaps): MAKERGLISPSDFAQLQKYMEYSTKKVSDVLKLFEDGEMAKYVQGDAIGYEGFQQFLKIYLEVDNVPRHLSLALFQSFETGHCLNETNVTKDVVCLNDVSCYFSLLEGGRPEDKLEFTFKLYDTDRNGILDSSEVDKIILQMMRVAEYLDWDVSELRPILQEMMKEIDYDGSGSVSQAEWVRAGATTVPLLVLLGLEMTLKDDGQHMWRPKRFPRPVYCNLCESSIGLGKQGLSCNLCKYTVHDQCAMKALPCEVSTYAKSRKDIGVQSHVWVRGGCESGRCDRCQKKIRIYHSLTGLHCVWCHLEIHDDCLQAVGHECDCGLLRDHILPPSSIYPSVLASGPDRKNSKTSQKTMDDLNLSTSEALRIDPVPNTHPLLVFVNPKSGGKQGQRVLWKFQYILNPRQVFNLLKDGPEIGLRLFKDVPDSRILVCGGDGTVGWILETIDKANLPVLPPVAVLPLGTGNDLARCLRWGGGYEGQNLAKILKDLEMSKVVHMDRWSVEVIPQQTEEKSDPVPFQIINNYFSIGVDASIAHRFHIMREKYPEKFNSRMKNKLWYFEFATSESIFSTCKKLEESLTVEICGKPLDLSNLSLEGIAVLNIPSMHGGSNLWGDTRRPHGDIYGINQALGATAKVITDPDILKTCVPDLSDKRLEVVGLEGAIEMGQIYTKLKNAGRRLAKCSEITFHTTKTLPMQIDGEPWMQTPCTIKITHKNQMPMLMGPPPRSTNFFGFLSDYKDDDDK

Compound | IC50 [nM]
Cc1ccc2oc(C3CCN(c4c(C(N)=O)c(=O)n(C)c5cc(F)c(Br)cc45)CC3)nc2c1 [Example 563, 6-bromo-7-fluoro-1-methyl-4-[4-(5-methyl-1,3-benzoxazol-2-yl)piperidin-1-yl]-2-oxo-1,2-dihydroquinoline-3-carboxamide] | 1.7
Cc1ccc2oc(C3CCN(c4c(C(N)=O)c(=O)n(C)c5cc(F)c(C#N)cc45)CC3)nc2c1 [Example 564, 6-cyano-7-fluoro-1-methyl-4-[4-(5-methyl-1,3-benzoxazol-2-yl)piperidin-1-yl]-2-oxo-1,2-dihydroquinoline-3-carboxamide] | 3.3
COc1cc2c(cc1Cl)c(N1CCC(c3nc4cc(C)ccc4o3)CC1)c(C#N)c(=O)n2C [Example 566, 6-chloro-7-methoxy-1-methyl-4-[4-(5-methyl-1,3-benzoxazol-2-yl)piperidin-1-yl]-2-oxo-1,2-dihydroquinoline-3-carbonitrile] | 0.3
Cc1ccc2oc(C3CCN(c4c(C#N)c(=O)n(C)c5cc(O)c(Cl)cc45)CC3)nc2c1 [Example 567, 6-chloro-7-hydroxy-1-methyl-4-[4-(5-methyl-1,3-benzoxazol-2-yl)piperidin-1-yl]-2-oxo-1,2-dihydroquinoline-3-carbonitrile] | 2
Cc1cc2c(N3CCC(c4cnn(-c5ccccc5C)c4)CC3)c(C#N)c(=O)n(C)c2cc1Br [Example 579, 7-bromo-1,6-dimethyl-4-{4-[1-(2-methylphenyl)-1H-pyrazol-4-yl]piperidin-1-yl}-2-oxo-1,2-dihydroquinoline-3-carbonitrile] | 61

biological target: T1, DGKα; experiment: not given; conditions: prior art; cited from earlier work
Target sequence in this assay (P23743 whole entry, species assumed): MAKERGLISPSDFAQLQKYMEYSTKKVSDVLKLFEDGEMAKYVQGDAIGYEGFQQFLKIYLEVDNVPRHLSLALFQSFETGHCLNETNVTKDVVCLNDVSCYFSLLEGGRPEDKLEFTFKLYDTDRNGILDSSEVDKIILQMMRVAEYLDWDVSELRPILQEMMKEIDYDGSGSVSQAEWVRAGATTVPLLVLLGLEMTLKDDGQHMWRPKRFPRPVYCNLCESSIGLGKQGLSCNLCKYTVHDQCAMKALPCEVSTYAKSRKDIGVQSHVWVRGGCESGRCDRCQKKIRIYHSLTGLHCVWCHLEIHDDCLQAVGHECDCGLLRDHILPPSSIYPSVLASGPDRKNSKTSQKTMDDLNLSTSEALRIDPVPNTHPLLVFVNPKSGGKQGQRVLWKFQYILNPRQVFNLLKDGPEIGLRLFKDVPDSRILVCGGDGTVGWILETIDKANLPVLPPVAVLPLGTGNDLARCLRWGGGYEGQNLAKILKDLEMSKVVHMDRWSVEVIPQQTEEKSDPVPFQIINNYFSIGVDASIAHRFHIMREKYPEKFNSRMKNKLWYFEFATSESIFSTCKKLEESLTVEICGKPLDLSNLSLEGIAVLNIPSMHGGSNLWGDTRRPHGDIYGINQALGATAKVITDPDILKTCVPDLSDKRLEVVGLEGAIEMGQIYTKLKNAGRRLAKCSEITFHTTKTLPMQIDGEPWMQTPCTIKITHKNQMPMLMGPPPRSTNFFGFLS

Compound | inhibitory activity on DGKα
Cc1ccc2c(C(=O)CN3CCN(C(=O)c4ccco4)CC3)c(C)[nH]c2c1 [AMB639752] | micromolar
O=C1/C(=C\C=C\c2ccco2)SC(=S)N1NS(=O)(=O)c1ccccc1 [CU-3] | sub-micromolar
Cc1nc2sccn2c(=O)c1CCN1CCC(=C(c2ccc(F)cc2)c2ccc(F)cc2)CC1 [Ritanserin] | comparable activity

system: intracranially injected GBM tumors; experiment: not given; conditions: concurrent administration; Dominguez et al. 2013; cited from earlier work

Compound | growth of intracranially injected GBM tumors
Cc1nc2sccn2c(=O)c1CCN1CCC(=C(c2ccccc2)c2ccc(F)cc2)CC1 [Example R59022] | decreased growth
